What was measured:
[1] = tested on: HDAC enzymes in HCT-116 cells; test: HDAC fluorimetric cellular activity assay; assay type: cell-based, human; settings: 1 µM
Protocol: These epigenetic processes consist in downregulation of HDACs and yet other biochemical processes triggered by VPA released in cells by the reduction of the Pt(IV) prodrug. Moreover, it has also been shown[15] that non-branched MCFAs may act as HDAC inhibitors. […] HDAC activity was analyzed in HCT-116 cells and confirmed by an independent set of experiments on A2780 cells (data not shown) by using a commercial HDAC fluorimetric cellular activity kit as described in the section Materials and methods.
Figure 3 Activity of HDAC enzymes in HCT-116 cells treated with the compounds tested in the present work; their concentration was 1 µM except the concentration of free OA, which was 1 mM. […] The data represent a mean from three independent experiments, each performed in quadruplicate. The error bars are the SDs.
The activity of HDAC enzymes was analyzed in HCT-116 cells treated with compounds tested in the present work (1 µM). […] The activity of HDAC was analyzed using the HDAC fluorimetric cellular activity assay kit (Enzo Life Sciences; Farmingdale, NY) in the whole cells according to manufacturer’s instructions. […] The plates were scanned on a fluorescence reader Infinite 200 (TECAN) (360 nm excitation, 460 nm emission).

[2] = log P (octanol/water) by shake flask method; assay type: physicochemical; settings: 0.2 M aqueous NaCl
Protocol: To quantify the hydrophobicity of the platinum complexes, the shake-flask method was used to measure partition coefficients (log P) values for octanol/water.
To determine the partition coefficient (P) the shake flask method was used. Octanol-saturated water (OSW) and water-saturated octanol (WSO) were prepared using analytical grade octanol and 0.2 M aqueous NaCl solution (to suppress hydrolysis of the chlorido complexes). […] Mixing was done by vortexing for 30 min at room temperature to establish the partition equilibrium. To separate the phases, centrifugation was done at 3000 g for 5 min. The aqueous layer was carefully separated from the octanol layer for platinum analysis. Platinum was quantified from aliquots taken from the octanol-saturated aqueous samples before and after partition by ICP-MS.

[3] = tested on: mitochondrial membrane potential Δψ m in HCT-116 cells; test: Mitochondrial membrane potential, TMRE staining and confocal microscopy; assay type: cell-based, human; settings: HCT-116, 1 µM, 5 h
Protocol: The loss of Δψ m represents an early event in the apoptosis cascade that precedes the release of pro-apoptotic factors such as cytochrome c and the activation of effector caspases.
HCT-116 cells were seeded on glass bottom dishes (P50G-0-30-F, MatTek Co., Ashland, USA) at the density 3 × 10^5 cells per dish, cultured in RPMI-1640 medium (without phenol red) and incubated at 37 °C in a humidified 5% CO2 atmosphere overnight. The cells were subsequently treated with the compounds (1 μM) for 5 h. After this period, cells were washed twice with PBS and resuspended in staining medium (without Pt compound), supplemented with Hoechst 33258 and tetramethylrhodamine, ethyl ester (TMRE) from multiparametric apoptosis assay kit (Cayman Chemical, Michigan, USA) according to the manufacturer’s protocol. After 20 min of staining, the staining medium was replaced by a fresh medium (without staining dye and platinum compound).
Images of living cells were acquired with a Leica TSC SP-5X laser scanning confocal microscope (Leica Microsystems, Mannheim, Germany) using an HCX PL APO lambda blue 63.0 × 1.20 water UV objective lens corrected with an appropriate beam path (resolution 1024 × 1024, frequency 100 Hz). […] Quantification of the mean signal intensity associated with single cells was performed using software ImageJ v1.47, U.S. National Institutes of Health, Bethesda, Maryland, USA.

[4] = tested on: A2780cisR human ovarian carcinoma cells; design: method as in PMID 25888926; settings: compared with Pt(IV)diOA value of Table 1; cited from earlier work
[5] = tested on: MCF-7 human breast cancer cells; design: method as in PMID 25888926; settings: compared with Pt(IV)diOA value of Table 1; cited from earlier work
[6] = design: method as in PMID 25888926; settings: valproato complexes; cited from earlier work
[7] = tested on: A2780 human ovarian carcinoma cells; design: method as in PMID 25888926; settings: compared with Pt(IV)diOA value of Table 1; cited from earlier work
[8] = tested on: DNA methylation in HCT-116 cells; test: DNA methylation analysis (Imprint methylated DNA quantification kit); assay type: cell-based, human; settings: HCT-116, 30 µM, 72 h
Protocol: Human colon adenocarcinoma cells HCT-116 were chosen as the model cellular system suitable for DNA methylation analysis because: (i) this human colorectal cancer cell line has been used as a prototypic model for analyses of the genetic basis of cancer, and the role of epigenetic changes in tumorigenesis; (ii) they have a propensity to both global DNA hypomethylation and to silence genes through promoter focal hypermethylation, [21]. HCT-116 cells were treated with the compounds at the concentrations indicated in Fig. 4A for 24 or 72 h and DNA was isolated for the complete methylation analysis as described in the experimental section. Decitabine (5-aza-2′-deoxycytidine), a hypomethylating agent which hypomethylates DNA by inhibiting DNMT, was used in these experiments as a […]. The IC50 values found for this agent in HCT-116 cells (the drug-treatment period was 72 h) was (7.5 ± 0.3) µM (Table 1).
Figure 4 Analysis of DNA methylation. (A) DNA was isolated from HCT-116 cells after the exposure to the agents at the concentrations indicated in the graph for 24 or 72 h. The levels of DNA methylation in the control was taken as 100%. The bars represent mean values from three independent experiments each performed in octuplicate. The error bars are the SDs. (B) DNMT activity in colon carcinoma cells HCT-116 treated for 24 h with the compounds tested in the present work. The DNMT activity in the control, untreated cells was taken as 100%. Error bars are the SDs and the stars at the top of bars denote a significant difference from the control with (*p < 0.05; **p < […]), calculated using […] student’s t-test. The bars represent mean values from three independent experiments, each performed in quadruplicate.
Human colon carcinoma cells (HCT-116) were seeded at the density 1.5 × 10^6 cells/dish. […] The DNA content in each sample was determined by UV spectrophotometry. DNA (200 ng) from the samples was loaded to the Imprint methylated DNA quantification kit (Sigma-Aldrich, USA). The level of methylated DNA was proportional to the absorbance measured at 450 nm.

**Q.** For `CC(=O)[O][Pt]([NH2])([NH2])([Cl])([Cl])[O]C(C)=O` [Pt(IV)diAc, cis, cis, trans-[Pt(IV)(NH3)2Cl2(Ac)2]], which “Efficiency to inhibit HDAC activity” value [1] is on record?
**A.** very small

**Q.** What about the “log P” value [2] of the same molecule?
**A.** −1.85 ± 0.09

**Q.** And the “Reduction in the fraction of cells with an intact Δψ m relative to untreated control” value [3]?
**A.** no reduction

**Q.** What does the source list for `CCCC(CCC)C(=O)[O][Pt]([NH2])([NH2])([Cl])([Cl])[O]C(=O)C(CCC)CCC` [Pt(IV)diVPA, cis, cis, trans-[Pt(IV)(NH3)2Cl2(VPA)2]]?
**A.** IC50 [4]: 300 ± 100 nM; IC50 [5]: 900 ± 300 nM; logP [6]: 0.25; IC50 [7]: 250 ± 90 nM

**Q.** With `N.N.[Cl][Pt][Cl]` [cisplatin, reference compound] as the molecule, how does the “Change of DNA methylation” value [8] read?
**A.** non-significant change
